Molecular target: Aβ1-42 (Homo sapiens, UniProt P05067)
Assay: FRET assay of Aβ1-42 oligomer (ADDL) assembly inhibition
Assay type: biochemical
Details: 0.2 μM FITC-Aβ(1-42) and 0.8 μM Aβ(1-42), 37° C., six concentrations from about 10 μM to about 0.03 μM
Text: Fluorescence (or Förster) Resonance Energy Transfer (FRET) is a distance-dependent, non-radiative transfer of energy in which the de-excitation of one fluorophore (donor) is coupled to excitation of another fluorophore (acceptor). FRET occurs if (1) the quantum of energy emitted by a donor fluorophore corresponds to an acceptor fluorophore's excitation energy, (2) the orientations of donor and acceptor transition dipoles are nearly parallel and (3) the donor fluorescent emission spectrum overlaps the acceptor absorption spectrum.
In this assay, assembly of Aβ1-42 oligomer formation is monitored by FRET using N-terminal conjugates of fluorescein-Aβ1-42 as both the donor and acceptor fluorophore (fluorescein-fluorescein Ro˜45 Å). […] Inhibition of Aβ1-42 assembly is observed as the absence or attenuation of fluorescein quenching.
FRET and FP assays are performed in 384-well Corning Non-Binding Surface, black, opaque microtiter plates, and the assay buffer consists of 25 mM MOPS-Tris (pH 8.0) with 100 mM MgCl2. The assay volume, containing 0.2 μM FITC-Aβ(1-42) and 0.8 μM Aβ(1-42), is 50 μl and the temperature is 37° C. […] Kinetic traces are collected by recording fluorescence intensity and polarization readings every five minutes over about a three hour time course. […] Positive control reactions contain all buffer components in the absence of added small molecule or antibody reagents. To test for ADDL assembly inhibition, the compound was incubated with the peptide mixture at six concentrations from about 10 μM decreasing to about 0.03 μM.

Sequence of Aβ1-42 (P05067 672-713 limits assumed): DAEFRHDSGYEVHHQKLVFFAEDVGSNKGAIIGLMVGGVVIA

SMILES	IC50 [µM]
O=C(C/C(=N/NC(=O)c1ccccc1NS(=O)(=O)c1ccc(Cl)cc1)C(F)(F)F)c1cccs1 [Compound 16, 4-chloro-N-(2-(2-(1,1,1-trifluoro-4-oxo-4-(thiophen-2-yl)butan-2-ylidene) hydrazinecarbonyl)phenyl)benzenesulfonamide]	9.7
O=C(C/C(=N/NC(=O)c1sc2cc(F)ccc2c1Cl)C(F)(F)F)c1cc2ccccc2s1 [Compound 17, N′-(4-(benzo[b]thiophen-2-yl)-1,1,1-trifluoro-4-oxobutan-2-ylidene)-3-chloro-6-fluorobenzo[b] thiophene-2-carbohydrazide]	10.2
O=C(N/N=C(/CC(=O)N1CCOCC1)C(F)(F)F)c1ccccc1O [Compound 18, 2-hydroxy-N′-(1,1,1-trifluoro-4-morpholino-4-oxobutan-2-ylidene)benzohydrazide]	10.4
O=C(C/C(=N/NC(=O)c1ccccc1O)C(F)(F)F)c1ccc(Cl)s1 [Compound 19, N′-(4-(5-chlorothiophen-2-yl)-1,1,1-trifluoro-4-oxobutan-2-ylidene)-2-hydroxy benzohydrazide]	11.5
O=C(C/C(=N/NC(=O)c1cc(Cl)ccc1O)C(F)(F)F)c1cccs1 [Compound 20, 5-chloro-2-hydroxy-N′-(1,1,1-trifluoro-4-oxo-4-(thiophen-2-yl)butan-2-ylidene)benzohydrazide]	11.9
Cc1csc(C(=O)N/N=C(/CC(=O)c2cccs2)C(F)(F)F)c1Cl [Compound 21, 3-chloro-4-methyl-N′-(1,1,1-trifluoro-4-oxo-4-(thiophen-2-yl)butan-2-ylidene)thiophene-2-carbohydrazide]	12.5
O=C(C/C(=N/NC(=O)c1cccc2cc[nH]c12)C(F)(F)F)c1cccs1 [Compound 22, N′-(1,1,1-trifluoro-4-oxo-4-(thiophen-2-yl)butan-2-ylidene)-1H-indole-7-carbohydrazide]	13.5
O=C(C/C(=N/NC(=O)c1sc2cc(F)ccc2c1Cl)C(F)(F)F)c1ccc(Cl)s1 [Compound 23, 3-chloro-N′-(4-(5-chlorothiophen-2-yl)-1,1,1-trifluoro-4-oxobulan-2-ylidene)-6-fluorobenzo[b]thiophene-2-carbohydrazide]	16
O=C(C/C(=N/NC(=O)c1sc2cc(F)ccc2c1Cl)C(F)(F)F)c1cccs1 [Compound 24, 3-chloro-6-fluoro-N′-(1,1,1-trifluoro-4-oxo-4-(thiophen-2-yl)butan-2-ylidene)benzo[b]thiophene-2-carbohydrazide]	16.1
Cc1cccc(C(=O)N/N=C(/CC(=O)c2cccs2)C(F)(F)F)c1O [Compound 25, 2-hydroxy-3-methyl-N′-(1,1,1-trifluoro-4-oxo-4-(thiophen-2-yl)butan-2-ylidene)benzohydrazide]	16.3
O=C(N/N=C(/CC(=O)c1cccs1)C(F)(F)F)c1ccc(Br)cc1 [Compound 27, 4-bromo-N′-(1,1,1-trifluoro-4-oxo-4-(thiophen-2-yl)butan-2-ylidene)benzohydrazide]	18.8
O=C(C/C(=N/NC(=O)c1cc2ccccc2s1)C(F)(F)F)c1cccs1 [Compound 28, N′-(1,1,1-trifluoro-4-oxo-4-(thiophen-2-yl)butan-2-ylidene)benzo[b]thiophene-2-carbohydrazide]	19.4
C/C(CC(=O)N1CCC(c2ccccc2)CC1)=N\NC(=O)c1ccccc1O [Compound 29, 2-hydroxy-N′-(4-oxo-4-(4-phenylpiperidin-1-yl)butan-2-ylidene)benzohydrazide]	26.7
O=C(C/C(=N/NC(=O)c1[nH]c2ccccc2c1Cl)C(F)(F)F)c1cccs1 [Compound 30, 3-chloro-N′-(1,1,1-trifluoro-4-oxo-4-(thiophen-2-yl)butan-2-ylidene)-1H-indole-2-carbohydrazide]	28.3
O=C(C/C(=N\NC(=O)c1sc2cc(F)ccc2c1Cl)C(F)(F)F)c1ccco1 [Compound 31, 3-chloro-6-fluoro-N′-(1,1,1-trifluoro-4-(furan-2-yl)-4-oxobulan-2-ylidene)benzo[b]thiophene-2-carbohydrazide]	30.2
C/C(CC(N)=O)=N\NC(=O)c1ccccc1O [Compound 32, 3-(2-(2-hydroxybenzoyl)hydrazono)butanamide]	35
Cc1ccc(C(=O)N/N=C(/CC(=O)c2cccs2)C(F)(F)F)cc1 [Compound 33, 4-methyl-N′-(1,1,1-trifluoro-4-oxo-4-(thiophen-2-yl)butan-2-ylidene)benzohydrazide]	40.8
O=C(C/C(=N/NC(=O)c1cnn(-c2ccccc2)c1C(F)(F)F)C(F)(F)F)c1cccs1 [Compound 34, 1-phenyl-N′-(1,1,1-trifluoro-4-oxo-4-(thiophen-2-yl)butan-2-ylidene)-5-(trifluoromethyl)-1H-pyrazole-4-carbohydrazide]	40.9
O=C(C/C(=N/NC(=O)c1c(F)cccc1F)C(F)(F)F)c1cccs1 [Compound 35, 2,6-difluoro-N′-(1,1,1-trifluoro-4-oxo-4-(thiophen-2-yl)butan-2-ylidene)benzohydrazide]	41.2

Next, values leading:

IC50 [µM]	SMILES
4.2	O=C(C/C(=N\NC(=O)c1ccccc1O)C(F)(F)F)c1ccco1 [Compound 1, 2-hydroxy-N′-(1,1,1-trifluoro-4-(furan-2-yl)-4-oxobutan-2-ylidene)benzohydrazide]
5.2	O=C(N/N=C(/CC(=O)N1CCN(Cc2ccccc2)CC1)C(F)(F)F)c1ccccc1O [Compound 3, N′-(4-(4-benzylpiperazin-1-yl)-1,1,1-trifluoro-4-oxobulan-2-ylidene)-2-hydroxy-benzohydrazide]
5.9	C/C(CC(=O)c1ccco1)=N\NC(=O)c1sc2cc(F)ccc2c1Cl [Compound 4, 3-chloro-6-fluoro-N′-(4-(furan-2-yl)-4-oxobutan-2-ylidene)benzo[b]-thiophene-2-carbohydrazide]
6	CS(=O)(=O)Nc1ccccc1C(=O)N/N=C(/CC(=O)c1cccs1)C(F)(F)F [Compound 5, N-(2-(2-(1,1,1-trifluoro-4-oxo-4-(thiophen-2-yl)butan-2-ylidene)hydrazine-carbonyl)phenyl)methanesulfonamide]
7.1	CN1CCN(C(=O)C/C(=N/NC(=O)c2ccccc2O)C(F)(F)F)CC1 [Compound 6, 2-hydroxy-N′-(1,1,1-trifluoro-4-(4-methylpiperazin-1-yl)-4-oxobutan-2-ylidene) benzohydrazide]
7.4	CC(C)(C)C(=O)C/C(=N/NC(=O)c1ccccc1O)C(F)(F)F [Compound 7, 2-hydroxy-N′-(1,1,1-trifluoro-5,5-dimethyl-4-oxohexan-2-ylidene)benzohydrazide]
7.7	O=C(C/C(=N/NC(=O)c1ccccc1O)C(F)(F)F)c1cc2ccccc2s1 [Compound 8, N′-(4-(benzo[b]thiophen-2-yl)-1,1,1-trifluoro-4-oxobutan-2-ylidene)-2-hydroxy benzohydrazide]
8.2	Cn1nccc1C(=O)C/C(=N/NC(=O)c1ccccc1O)C(F)(F)F [Compound 9, 2-hydroxy-N′-(1,1,1-trifluoro-4-(1-methyl-1H-pyrazol-5-yl)-4-oxobutan-2-ylidene) benzohydrazide]
8.3	Cc1ccc(C(=O)C/C(=N/NC(=O)c2sc3cc(F)ccc3c2Cl)C(F)(F)F)s1 [Compound 10, 3-chloro-6-fluoro-N′-(1,1,1-trifluoro-4-(5-methylthiophen-2-yl)-4-oxobutan-2-ylidene)benzo[b]thiophene-2-carbohydrazide]
8.4	Cc1nnsc1C(=O)N/N=C(/CC(=O)c1cccs1)C(F)(F)F [Compound 11, 4-methyl-N′-(1,1,1-trifluoro-4-oxo-4-(thiophen-2-yl)butan-2-ylidene)-1,2,3-thiadiazole-5-carbohydrazide]
8.6	CC(C)(C)C(=O)C/C(=N/NC(=O)c1sc2cc(F)ccc2c1Cl)C(F)(F)F [Compound 12, 3-chloro-6-fluoro-N′-(1,1,1-trifluoro-5,5-dimethyl-4-oxohexan-2-ylidene)benzo[b]thiophene-2-carbohydrazide]
9.1	Cc1ccc(C(=O)C/C(=N/NC(=O)c2ccccc2O)C(F)(F)F)s1 [Compound 13, 2-hydroxy-N′-(1,1,1-trifluoro-4-(5-methylthiophen-2-yl)-4-oxobutan-2-ylidene) benzohydrazide]
9.5	O=C(C/C(=N/NC(=O)c1sc2ccccc2c1Cl)C(F)(F)F)c1cccs1 [Compound 14, 3-chloro-N′-(1,1,1-trifluoro-4-oxo-4-(thiophen-2-yl)butan-2-ylidene)benzo[b]thiophene-2-carbohydrazide]
9.5	O=C(C/C(=N\NC(=O)c1sc2ccccc2c1Cl)C(F)(F)F)c1ccco1 [Compound 15, 3-chloro-N′-(1,1,1-trifluoro-4-(furan-2-yl)-4-oxobutan-2-ylidene)benzo[b]thiophene-2-carbohydrazide]
1	COc1ccc(O)c(/C=N/NC(=O)c2ccc(-n3cccc3)cc2O)c1 [Compound 36, 2-hydroxy-N′-(2-hydroxy-5-methoxy-benzylidene)-4-(1H-pyrrol-1-yl) benzohydrazide]
1.2	COc1ccc(O)c(/C=N/NC(=O)c2cc3ccccc3cc2O)c1 [Compound 37, 3-hydroxy-N′-(2-hydroxy-5-methoxy-benzylidene)-2-naphtho hydrazide]

— patent US20110098309A1, “METHODS OF INHIBITING THE FORMATION OF AMYLOID-BETA DIFFUSABLE LIGANDS USING ACYLHYDRAZIDE COMPOUNDS” (priority 2007, published 2011)
